Measurements: article PMC5486949 (SLAS discovery, 2017)
Where a name gives a salt, the structure may show the parent alone. Read-outs that look alike come from different tables or passages of the source. One block for each molecule: values may come before it.

Key:
ERRα [1] = assay: ERR luciferase reporter gene assay, agonist mode; type: cell-based, human; details: for AC50 ERR ↑: agonist mode, 0 = inactive or inconclusive; for AC50: read-out: AC50 ERR ↑
PGC-1α/ERRα [2] = assay: PGC/ERR luciferase reporter gene assay, agonist mode; type: cell-based, human; details: for AC50 PGC-ERR ↑: agonist mode, 0 = inactive or inconclusive; for EC50 / AC50: Homo sapiens; for EC50: read-out: PGC-1α/ERRα (Agonist) EC50; for AC50: read-out: AC50 PGC-ERR ↑
[3] = system: aryl hydrocarbon receptor (AhR); details: cited from earlier work
PGC-1α/ERRα [4] = assay: PGC/ERR luciferase reporter gene assay, antagonist mode; type: cell-based, human; details: for IC50: read-out: PGC-1α/ERRα (Antagonist) IC50; for AC50: read-out: AC50 PGC/ERR ↓
ERRα [5] = assay: ERR luciferase reporter gene assay, antagonist mode; type: cell-based, human; details: for IC50 / AC50: Homo sapiens; for IC50: read-out: ERRα (Antagonist) IC50; for AC50: read-out: AC50 ERR↓
ERR cell line (HEK293T) = assay: Cell viability assay multiplexed with ERR antagonist mode assay; type: cell-based, human; details: read-out: ERRα (Viability) IC50
[6] = system: PGC/ERR cell line (HEK293T); assay: Cell viability assay multiplexed with PGC/ERR antagonist mode assay; type: cell-based, human; details: read-out: PGC-1α/ERRα (Viability) IC50
[7] = system: ERR and PGC/ERR cell lines; assay: Cell viability; details: agonist mode, ERR and PGC/ERR lines (Fig. 3A,B)
[8] = read-out: ERRα (Agonist) EC50, LOPAC qHTS, dash = inconclusive or no activity
[9] = Homo sapiens, read-out: ERRα (Agonist) EC50
[10] = antagonist mode, 0 = inactive or inconclusive

AC50 ERR ↑ (ERRα [1]): 5.78 log10(M)*–1
EC50 (ERRα [1]; [8]): 1.68 µM
AC50 PGC-ERR ↑ (PGC-1α/ERRα [2]): 5.93 log10(M)*–1
Molecule: 6-Bromoindirubin-3-oxime
AC50 AhR ↑ [3]: 5.48 log10(M)*–1

EC50 (PGC-1α/ERRα [2]): 1.68 µM
Molecule: Nc1nc(Nc2ccccc2)nc2c1ncn2[C@@H]1O[C@H](CO)[C@@H](O)[C@H]1O [2-Phenylaminoadenosine]

EC50 (ERRα [1]; [8]): 13.3 µM
Molecule: Fc1cccc(C=NN=Cc2cccc(F)c2)c1 [3,3 ′-Difluorobenzaldazine]

IC50 (PGC-1α/ERRα [4]; Homo sapiens): 16.8 µM
Molecule: Nc1nccc2c1ncn2[C@@H]1O[C@H](CO)[C@@H](O)[C@H]1O [3-Deazaadenosine]

Molecule: Brc1c(Br)c(Br)c2[nH]cnc2c1Br [4,5,6,7-Tetrabromobenz-imidazole]
IC50 (ERRα [5]): 16.8 µM

IC50 (ERRα [5]): 18.8 µM
IC50 (PGC-1α/ERRα [4]; Homo sapiens): 21.1 µM
Molecule: Brc1c(Br)c(Br)c2[nH]nnc2c1Br [4,5,6,7-Tetrabromobenzo-triazole]
AC50 (ERRα [5]): 20.9 µM
AC50 (PGC-1α/ERRα [4]; Homo sapiens): 20.9 µM

Molecule: Nc1ccc(N=Nc2ccccc2)cc1 [4-Aminoazobenzene]
EC50 (ERRα [1]; [9]): 10.9 µM

EC50 (ERRα [1]; [9]): 13.3 µM
Molecule: Cc1cccc(C#Cc2ccccc2)n1 [6-Methyl-2-(phenylethynyl)pyridine HCl]

IC50 (ERRα [5]): 12.6 µM
Molecule: CC1=C(C)C(=O)C(CCCCC#CCCCC#CCO)=C(C)C1=O [AA-861]

Molecule: CC[n+]1c(/C=C/C=C2/N(C)c3ccccc3C2(C)C)sc2ccccc21 [AC-93253 iodide]
IC50 (PGC-1α/ERRα [4]): 0.42 µM
IC50 (ERR cell line (HEK293T)): 8.41 µM
IC50 [6]: 3.76 µM

Molecule: O=C1NC(=O)/C(=C/c2ccc3c(c2)OC(F)(F)O3)S1 [AS 604850]
EC50 (ERRα [1]; [8]): 3.16 µM

IC50 (PGC-1α/ERRα [4]; Homo sapiens): 8.91 µM
Molecule: CCCCC[C@H](CC(=O)NO)C(=O)N[C@H](C(=O)N1CCC[C@H]1CO)C(C)C [Actinonin]

Molecule: Nc1nc(N)c2nc(CNc3ccc(C(=O)N[C@@H](CCC(=O)O)C(=O)O)cc3)cnc2n1 [Aminopterin]
AC50 (ERRα [5]): 0.0468 µM
IC50 (ERRα [5]): 0.05 µM
AC50 (PGC-1α/ERRα [4]; Homo sapiens): 0.0589 µM
IC50 (PGC-1α/ERRα [4]; Homo sapiens): 0.06 µM

Molecule: COc1cc(NS(C)(=O)=O)ccc1Nc1c2ccccc2nc2ccccc12 [Amsacrine hydrochloride]
IC50 (ERR cell line (HEK293T); Homo sapiens, HEK-293T): 23.7 µM

Molecule: O=c1cc(-c2ccc(O)cc2)oc2cc(O)cc(O)c12 [Apigenin]
AC50 (PGC-1α/ERRα [2]): 2.34 µM
AC50 AhR ↑ [3]: 5.28 log10(M)*–1

IC50 (ERRα [5]): 0.53 µM
IC50 (PGC-1α/ERRα [4]; Homo sapiens): 0.75 µM
Molecule: CO[C@H]1O[C@@H]2O[C@@]3(C)CC[C@H]4[C@H](C)CC[C@@H]([C@H]1C)[C@@]24OO3 [Artemether]
AC50 (ERRα [5]): 0.525 µM
AC50 (PGC-1α/ERRα [4]; Homo sapiens): 1.05 µM

Molecule: COc1ccc(-c2cc3nccn3c(Nc3ncccc3C(N)=O)n2)cc1OC.Cl.O [BAY 61-3606 hydrochloride hydrate]
AC50 ERR↓ (ERRα [5]; [10]): 5.53 log10(M)*–1
AC50 PGC/ERR ↓ (PGC-1α/ERRα [4]; [10]): 5.63 log10(M)*–1

Molecule: Nc1ccc(-c2ccc3ccccc3n2)cc1 [BF-170 hydrochloride]
AC50 ERR ↑ (ERRα [1]): 5.58 log10(M)*–1
EC50 (ERRα [1]; [8]): 2.66 µM
AC50 PGC-ERR ↑ (PGC-1α/ERRα [2]): 5.78 log10(M)*–1

EC50 (ERRα [1]; [8]): 16.8 µM
Molecule: Cc1ccc(S(=O)(=O)/C=C/C#N)cc1 [Bay 11-7082]

Molecule: C[C@H]1CCC/C=C/[C@@H]2C[C@H](O)C[C@H]2[C@H](O)/C=C/C(=O)O1 [Brefeldin A]
IC50 (ERRα [5]): 1.5 µM

EC50 (PGC-1α/ERRα [2]): 11.9 µM
Molecule: O=C(/C=C/c1ccc(O)c(O)c1)OCCc1ccccc1 [Caffeic acid phenethyl ester]

EC50 (ERRα [1]; [9]): 13.3 µM
Molecule: O=c1c(-c2ccc(O)cc2)coc2cc(O)ccc12 [Daidzein]
AC50 (ERRα [1]; Homo sapiens): 13.2 µM
AC50 (PGC-1α/ERRα [2]): 20.9 µM

IC50 (ERRα [5]): 15 µM
Molecule: C#C[C@]1(O)CC[C@H]2[C@@H]3CCC4=Cc5oncc5C[C@]4(C)[C@H]3CC[C@@]21C [Danazol]

IC50 (ERRα [5]): 11.9 µM
Molecule: OCCN(CCO)c1nc(N2CCCCC2)c2nc(N(CCO)CCO)nc(N3CCCCC3)c2n1 [Dipyridamole]

EC50 (ERRα [1]; [9]): 9.69 µM
Molecule: O=c1cc(-c2ccccc2)oc2ccccc12 [Flavone]

EC50 (PGC-1α/ERRα [2]): 1.33 µM
Molecule: C=C[C@@]1(C)CC(=O)[C@]2(O)[C@@]3(C)[C@@H](O)CCC(C)(C)[C@@H]3[C@H](O)[C@H](OC(C)=O)[C@@]2(C)O1 [Forskolin]

Molecule: O=c1c(-c2ccc(O)cc2)coc2cc(O)cc(O)c12 [Genistein]
EC50 (ERRα [1]; Homo sapiens, 18 h, read-out: EC50, ERRα induction, assay optimization, 2000 cells/well, 18 h): 3.33 µM
EC50 (ERRα [1]; Homo sapiens, 18 h, read-out: EC50, ERRα induction, assay optimization, 3000 cells/well, 18 h): 3.23 µM
AC50 (ERRα [1]; Homo sapiens): 2.95 µM
AC50 (PGC-1α/ERRα [2]): 3.31 µM
cytotoxicity at concentrations of outfitted points of agonist curves [7]: cytotoxicity did not appear to be the direct cause for the outfitted points

EC50 (ERRα [1]; [9]): 0.75 µM
Molecule: NNc1nncc2ccccc12 [Hydralazine hydrochloride]

Molecule: COc1ccc(/C=C2\COc3ccc(C)cc3C2=O)cc1O [IMS2186]
EC50 (ERRα [1]; [8]): 1.06 µM
